Laboratory results taken from patent US11439641B2, “Pyrimidine JAK inhibitors for the treatment of skin diseases” (THERAVANCE BIOPHARMA R&D IP, LLC, priority 2019, dated 2022).

Experiments:
[1] = molecular target: JAK1 (Homo sapiens (Human), UniProt P23458); assay: Biochemical JAK and Tyk2 Kinase Assays (LanthaScreen), JAK1; details: 25 μM ATP (Km); pIC50 converted to pKi by Cheng-Prusoff
[2] = molecular target: JAK3 (Homo sapiens (Human), UniProt P52333); assay: Biochemical JAK and Tyk2 Kinase Assays (LanthaScreen), JAK3; details: 1.6 μM ATP (Km); pIC50 converted to pKi by Cheng-Prusoff
Sequence of JAK3 (P52333 whole entry): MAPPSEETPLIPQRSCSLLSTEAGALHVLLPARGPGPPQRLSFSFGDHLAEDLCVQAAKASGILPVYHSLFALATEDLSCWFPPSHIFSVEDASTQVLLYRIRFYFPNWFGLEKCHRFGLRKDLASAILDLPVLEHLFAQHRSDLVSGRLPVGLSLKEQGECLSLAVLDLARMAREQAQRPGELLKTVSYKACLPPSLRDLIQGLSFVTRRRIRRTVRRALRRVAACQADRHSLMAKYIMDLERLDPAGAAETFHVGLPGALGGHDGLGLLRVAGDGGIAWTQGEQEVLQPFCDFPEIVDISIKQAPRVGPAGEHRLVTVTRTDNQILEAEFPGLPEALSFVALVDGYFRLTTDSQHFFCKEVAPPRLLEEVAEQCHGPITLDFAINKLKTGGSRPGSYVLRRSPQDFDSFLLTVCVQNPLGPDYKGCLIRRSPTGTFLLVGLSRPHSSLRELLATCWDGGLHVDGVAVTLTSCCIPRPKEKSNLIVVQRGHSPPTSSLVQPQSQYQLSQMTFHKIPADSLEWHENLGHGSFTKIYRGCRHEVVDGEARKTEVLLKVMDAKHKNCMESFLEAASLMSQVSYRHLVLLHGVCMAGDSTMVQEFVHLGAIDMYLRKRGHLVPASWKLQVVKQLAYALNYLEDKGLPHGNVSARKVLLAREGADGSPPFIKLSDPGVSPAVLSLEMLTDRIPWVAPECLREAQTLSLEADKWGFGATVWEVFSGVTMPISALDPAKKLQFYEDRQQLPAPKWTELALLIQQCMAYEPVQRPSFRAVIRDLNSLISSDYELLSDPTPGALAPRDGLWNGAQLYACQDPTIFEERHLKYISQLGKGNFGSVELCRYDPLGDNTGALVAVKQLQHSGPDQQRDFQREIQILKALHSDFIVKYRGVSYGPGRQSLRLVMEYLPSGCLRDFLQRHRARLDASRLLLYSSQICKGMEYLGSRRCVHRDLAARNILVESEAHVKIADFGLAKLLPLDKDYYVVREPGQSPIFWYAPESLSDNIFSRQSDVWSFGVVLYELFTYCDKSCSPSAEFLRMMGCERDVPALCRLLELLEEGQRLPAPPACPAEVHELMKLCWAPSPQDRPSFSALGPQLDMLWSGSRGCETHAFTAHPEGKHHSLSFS

[3] = test system: IL-2 stimulated pSTAT5 in Tall-1 T cells; assay: Inhibition of IL-2 Stimulated pSTAT5 in Tall-1 T Cells; type: cell-based; details: Tall-1 human T cell line, IL-2 300 ng/mL, AlphaLisa
Method in brief: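 Cells preincubated with compound 1 hour at 37° C, then stimulated with IL-2 (final 300 ng/mL) for 30 minutes. After lysis, pSTAT5 (Tyr694/699) read by AlphaLISA luminescence. IC50 from inhibition curves, reported as pIC50 (mean±SD).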

[4] = Aqueous Solubility Assay; details: PBS buffer pH 7.4; maximum upper limit 1,000 μM
[5] = Solubility Assay in Organic Excipients; details: maximum upper limit 20,000 μM; for Solubility in MCT (mg/mL): medium chain triglycerides (MCT)
[6] = test system: Caco-2 cell monolayer; assay: Caco-2 Permeation Assay; type: in vitro ADME; details: Papp, 5 μM compound; for Cacoverap Kp 10^−6 cm/sec: A→B in the presence of 25 μM verapamil (P-gp inhibitor); for Caco Kp 10^−6 cm/sec: apical to basal (A→B)
Procedure: Assay 3: Caco-2 Permeation Assay
The Caco 2 permeability assay was used as a surrogate for assessment of skin permeability. This assay measures the in vitro permeability across a monolayer of Caco-2 cells, which morphologically and functionally resemble the enterocytes of the small intestine.
CacoReady 24-well transwell plates were obtained from ADMEcell (Alameda, Calif.). The compounds were evaluated at a concentration of 5 μM from 10 mM DMSO stock solutions in duplicate (n=2). Transport in the apical to basal (A→B) direction was determined in Caco 2 cell monolayers. From these values the apparent permeability (Papp) was calculated. To inform on the potential of the compound to be a P-gp substrate, the transport of the compound across the Caco-2 cell monolayer was also determined in the presence of 25 μM of the known P-gp inhibitor verapamil (Yusa and Tsuruo et al., Cancer Research, vol. 49, no. 18, 1989, pp. 5002-06).
Caco-2 culture media consisted of standard filtered DMEM, FCS 10%, L-Glutamine 1%, and PenStrep 1%. The experiment was conducted at 37° C. and in a CO2 (5%) incubator. The basal assay plate was prepared by adding 750 pt of transport buffer to A→B wells. A CacoReady™ plate was prepared by removing the Caco-2 media from the apical wells and replacing with fresh transport media (200 pt repeated for a total of 3 washes). Blank media (200 μL) was then replaced with diluted compound. To begin the incubation, the basal plate was removed from the incubator and the apical section was added on top of it. Samples were collected from the apical and basal compartments for time zero (t0). Samples were collected again after 120 minutes (t120) from the apical and basal compartments. All samples were diluted and prepared for bioanalysis by LC-MS/MS. The permeability coefficients (Papp, mean A to B) and (Papp, mean A to B+Verapamil) in cm/sec were calculated as dQ (flux)/(dt×Area×concentration).
In this assay, a compound with a Papp value of more than about 12×10−6 cm/sec is considered to have high permeability.

Sequence of JAK1 (P23458 whole entry): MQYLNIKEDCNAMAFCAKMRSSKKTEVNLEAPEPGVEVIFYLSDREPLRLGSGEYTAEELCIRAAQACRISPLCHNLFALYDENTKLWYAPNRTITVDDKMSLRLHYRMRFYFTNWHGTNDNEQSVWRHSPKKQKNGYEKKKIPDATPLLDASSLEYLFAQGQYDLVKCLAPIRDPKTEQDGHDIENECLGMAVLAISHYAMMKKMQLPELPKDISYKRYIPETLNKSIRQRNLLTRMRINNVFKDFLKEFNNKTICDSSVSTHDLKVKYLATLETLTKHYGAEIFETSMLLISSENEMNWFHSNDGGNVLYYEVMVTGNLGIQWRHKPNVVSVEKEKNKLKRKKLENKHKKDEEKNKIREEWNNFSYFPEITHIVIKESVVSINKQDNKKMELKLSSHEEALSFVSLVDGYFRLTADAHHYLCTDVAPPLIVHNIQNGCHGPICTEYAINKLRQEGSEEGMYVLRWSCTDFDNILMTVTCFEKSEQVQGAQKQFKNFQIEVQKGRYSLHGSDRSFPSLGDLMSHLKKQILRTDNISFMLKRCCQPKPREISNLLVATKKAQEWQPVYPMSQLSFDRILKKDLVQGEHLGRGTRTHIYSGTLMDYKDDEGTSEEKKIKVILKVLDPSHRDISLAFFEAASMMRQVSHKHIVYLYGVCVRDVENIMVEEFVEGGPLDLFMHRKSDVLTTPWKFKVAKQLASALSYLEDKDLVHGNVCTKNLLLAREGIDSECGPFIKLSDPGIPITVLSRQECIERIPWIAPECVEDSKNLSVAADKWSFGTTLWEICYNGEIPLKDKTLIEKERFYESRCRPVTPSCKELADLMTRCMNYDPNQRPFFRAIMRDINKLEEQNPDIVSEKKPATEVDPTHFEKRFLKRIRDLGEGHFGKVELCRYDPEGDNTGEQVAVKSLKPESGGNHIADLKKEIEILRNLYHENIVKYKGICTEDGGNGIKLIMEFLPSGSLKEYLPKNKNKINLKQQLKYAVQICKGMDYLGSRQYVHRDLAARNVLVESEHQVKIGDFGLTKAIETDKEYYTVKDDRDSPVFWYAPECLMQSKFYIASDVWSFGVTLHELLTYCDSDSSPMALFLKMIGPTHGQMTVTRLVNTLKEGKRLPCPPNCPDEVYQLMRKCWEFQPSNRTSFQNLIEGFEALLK

Compound	JAK 1 (pKi) [1]	JAK 3 (pKi) [2]	Tall-1 IL2 pSTAT5 (pIC50) [3]	Solubility at PH 7.4 (μmol) [4]	Solubility in PEG400 (mg/mL) [5]	Solubility in Diisopropyl adipate (mg/mL) [5]	Solubility in MCT (mg/mL) [5]	Solubility in Propylene glycol (mg/mL) [5]	Cacoverap Kp 10^−6 cm/sec [6]	Caco Kp 10^−6 cm/sec [6]
CCS(=O)(=O)N1[C@@H]2CCC[C@H]1C[C@H](N(C)c1nc(Nc3cc(C)[nH]n3)cc(OC3COC3)n1)C2 [Compound 34, N^2-((1R,3s,5S)-9-(ethylsulfonyl)-9-azabicyclo[3.3.1]nonan-3-yl)-N2-methyl-N4-(5-methyl-1H-pyrazol-3-yl)-6-(oxetan-3-yloxy)pyrimidine-2,4-diamine]	A (A represents a pKi value ≥10 (Ki≤0.1 nM))	B (B represents a pKi value between 9 and 10 (Ki between 1 nM and 0.1 nM))	A (A represents a pIC50 value ≥8.0)	E (E represents a value below 10)	C (C represents a value below 5)	C (C represents a value below 5)	C (C represents a value below 5)	C (C represents a value below 5)		
CCNC(=O)CN1[C@@H]2CCC[C@H]1C[C@H](N(C)c1nc(Nc3cc(C)[nH]n3)cc(C3CCCO3)n1)C2 (stereo partly drawn) [Compound 15, N-ethyl-2-((1R,3s,5S)-3-(methyl(4-((5-methyl-1H-pyrazol-3-yl)amino)-6-(tetrahydrofuran-2-yl)pyrimidin-2-yl)amino)-9-azabicyclo[3.3.1]nonan-9-yl)acetamide]	A (A represents a pKi value ≥10 (Ki≤0.1 nM))	B (B represents a pKi value between 9 and 10 (Ki between 1 nM and 0.1 nM))	A (A represents a pIC50 value ≥8.0)	A (A represents a value above 500)	B (B represents a value between 5 and 10)	A (A represents a value above 10)	C (C represents a value below 5)	A (A represents a value above 10)	B (B represents a value between 20×10^−6 and 35×10^−6 cm/sec)	B (B represents a value between 15×10^−6 and 30×10^−6 cm/sec)
CCS(=O)(=O)N1[C@@H]2CCC[C@H]1C[C@H](N(C)c1nc(Nc3cc(C)[nH]n3)c(F)c(C3CCOCC3)n1)C2 [Compound 45, N2-((1R,3s,5S)-9-(ethylsulfonyl)-9-azabicyclo[3.3.1]nonan-3-yl)-5-fluoro-N2-methyl-N4-(5-methyl-1H-pyrazol-3-yl)-6-(tetrahydro-2H-pyran-4-yl)pyrimidine-2,4-diamine]	B (B represents a pKi value between 9 and 10 (Ki between 1 nM and 0.1 nM))	C (C represents a pKi value between 8 and 9 (Ki between 10 nM and 1 nM))	A (A represents a pIC50 value ≥8.0)	E (E represents a value below 10)	A (A represents a value above 10)	A (A represents a value above 10)	C (C represents a value below 5)	A (A represents a value above 10)	B (B represents a value between 20×10^−6 and 35×10^−6 cm/sec)	B (B represents a value between 15×10^−6 and 30×10^−6 cm/sec)
CCS(=O)(=O)N1[C@@H]2CCC[C@H]1C[C@H](N(C)c1nc(Nc3cc(C)[nH]n3)cc(OCC3COC3)n1)C2 [Compound 39, N^2-((1R,3s,5S)-9-(ethylsulfonyl)-9-azabicyclo[3.3.1]nonan-3-yl)-N2-methyl-N4-(5-methyl-1H-pyrazol-3-yl)-6-(oxetan-3-ylmethoxy)pyrimidine-2,4-diamine]	A (A represents a pKi value ≥10 (Ki≤0.1 nM))	A (A represents a pKi value ≥10 (Ki≤0.1 nM))		E (E represents a value below 10)	A (A represents a value above 10)	B (B represents a value between 5 and 10)	C (C represents a value below 5)	B (B represents a value between 5 and 10)	B (B represents a value between 20×10^−6 and 35×10^−6 cm/sec)	B (B represents a value between 15×10^−6 and 30×10^−6 cm/sec)
Cc1cc(Nc2cc(C3CCCO3)nc(N(C)[C@@H]3C[C@H]4CCC[C@@H](C3)N4C(=O)CC3CC3)n2)n[nH]1 (stereo partly drawn) [Compound 12, 2-cyclopropyl-1-((1R,3s,5S)-3-(methyl(4-((5-methyl-1H-pyrazol-3-yl)amino)-6-(tetrahydrofuran-2-yl)pyrimidin-2-yl)amino)-9-azabicyclo[3.3.1]nonan-9-yl)ethan-1-one]	B (B represents a pKi value between 9 and 10 (Ki between 1 nM and 0.1 nM))	C (C represents a pKi value between 8 and 9 (Ki between 10 nM and 1 nM))	A (A represents a pIC50 value ≥8.0)	C (C represents a value between 50 and 250)	B (B represents a value between 5 and 10)	B (B represents a value between 5 and 10)	C (C represents a value below 5)	B (B represents a value between 5 and 10)	C (C represents a value between 12×10^−6 and 20×10^−6 cm/sec)	B (B represents a value between 15×10^−6 and 30×10^−6 cm/sec)
CCC(=O)N1[C@@H]2CCC[C@H]1C[C@H](N(C)c1nc(Nc3cc(C)[nH]n3)cc(O[C@@H]3CCOC3)n1)C2 [Compound 17, 1-((1R,3s,5S)-3-(methyl(4-((5-methyl-1H-pyrazol-3-yl)amino)-6-(((R)-tetrahydrofuran-3-yl)oxy)pyrimidin-2-yl)amino)-9-azabicyclo[3.3.1]nonan-9-yl)propan-1-one]	B (B represents a pKi value between 9 and 10 (Ki between 1 nM and 0.1 nM))	C (C represents a pKi value between 8 and 9 (Ki between 10 nM and 1 nM))	A (A represents a pIC50 value ≥8.0)	D (D represents a value between 10 and 50)	B (B represents a value between 5 and 10)	A (A represents a value above 10)	C (C represents a value below 5)	A (A represents a value above 10)		
